{"source": "patent US11654135B2", "about": "“Methods for treating colon cancer with compositions comprising amlexanox and immune checkpoint inhibitors” (MOONSHOT PHARMA LLC, priority 2017, dated 2023)", "system": "MC38 tumor cells", "assay": "Example 2: MC38 subcutaneous tumor model with amlexanox and checkpoint inhibitors, tumor volume by caliper", "type": "in vivo, C57BL/6 mice", "details": "for Mean tumor volume: MC38 s.c., C57BL/6, i.p.: NMDI14 5, PTC124 20, amlexanox 20 (with antibodies) or 10 (alone) mg/kg QD, antibodies 10 mg/kg BIW, 3 weeks; for Mean % Inhibition, Tumor Volume MC38: (mean(C) − mean(T))/mean(C) * 100%, negative values indicate an increase in tumor volume", "description": "Animals and cell cultures were maintained as described in Example 1. C57BL/6 mice were inoculated subcutaneously at the right lower flank region with MC38 tumor cells (1×10^6) in 0.1 mL of PBS for tumor development. The treatments were started when the mean tumor size reaches approximately 50 mm^3. The date of tumor cell inoculation was denoted as day 0. All the compounds were administered i.p.\nAfter tumor cell inoculation, the animals were checked daily for morbidity and mortality as well as any effects of tumor growth and treatments on normal behavior such as mobility, visual estimation of food and water consumption, body weight gain/loss, eye/hair matting and any other abnormal effect. Tumor volumes were measured twice weekly at least in two dimensions using a caliper, and the volume expressed in mm3 using the formula: V=0.5 a×b2 where a and b are the long and short diameters of the tumor, respectively. Mean tumor volume for each treatment group over the course of the study is shown in Table 9, and the percent inhibition of tumor volume is shown in Table 10."}
{"smiles": "CC(C)c1ccc2oc3nc(N)c(C(=O)O)cc3c(=O)c2c1", "note": "[amlexanox, 2-amino-7-isopropyl-5-oxo-5H-chromeno[2,3-b]pyridine-3-carboxylic acid]", "values": [{"measurement": "Mean tumor volume", "setting": "Day 7", "value": 17.22, "unit": "mm3"}, {"measurement": "Mean tumor volume", "setting": "Day 11", "value": 145.47, "unit": "mm3"}, {"measurement": "Mean tumor volume", "setting": "Day 14", "value": 286.64, "unit": "mm3"}, {"measurement": "Mean tumor volume", "setting": "Day 18", "value": 982.03, "unit": "mm3"}, {"measurement": "Mean tumor volume", "setting": "Day 21", "value": 1830.00, "unit": "mm3"}, {"measurement": "Mean tumor volume", "setting": "Day 25", "value": 2816.94, "unit": "mm3"}, {"measurement": "Mean tumor volume", "setting": "Day 26 (so in the source)", "value": 3301.20, "unit": "mm3"}, {"measurement": "Mean % Inhibition, Tumor Volume MC38", "setting": "Study day 7 (Mar. 17, 2017)", "value": "−45.19", "unit": "%"}, {"measurement": "Mean % Inhibition, Tumor Volume MC38", "setting": "Study day 11 (Mar. 21, 2017)", "value": "−29.51", "unit": "%"}, {"measurement": "Mean % Inhibition, Tumor Volume MC38", "setting": "Study day 14 (Mar. 24, 2017)", "value": "−39.15", "unit": "%"}, {"measurement": "Mean % Inhibition, Tumor Volume MC38", "setting": "Study day 18 (Mar. 28, 2017)", "value": "−44.97", "unit": "%"}, {"measurement": "Mean % Inhibition, Tumor Volume MC38", "setting": "Study day 21 (Mar. 31, 2017)", "value": "−63.00", "unit": "%"}, {"measurement": "Mean % Inhibition, Tumor Volume MC38", "setting": "Study day 25 (Apr. 4, 2017)", "value": "−42.11", "unit": "%"}, {"measurement": "Mean % Inhibition, Tumor Volume MC38", "setting": "Study day 28 (Apr. 7, 2017)", "value": "−104.74", "unit": "%"}]}
